Test results: patent US7109193B2, “Tricyclic diazepines tocolytic oxytocin receptor antagonists” (Wyeth, priority 2001, dated 2006)

Biological target: T1, human vasopressin V2 receptor subtype (Homo sapiens, UniProt P30518)
T1 construct: host or cells: CHO cells (pZeoSV vector)
Test: Vasopressin binding in Chinese Hamster Ovary cell membranes expressing human vasopressin V2 subtype receptors
Settings: 100 nM, CHO cell membranes, [3H]arginine vasopressin, values without parentheses
Procedure, shortened: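 Radioligand displacement on membranes from CHO cells stably expressing human V2 receptor, 25 to 50 μg protein/well, in 50 mM Tris-HCl pH 7.4 with MgCl2, BSA and protease inhibitors. [^3H]arginine vasopressin (8 nM working solution) incubated 60 min at room temperature; bound label measured by filtration and scintillation counting.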

T1 sequence (P30518 whole entry): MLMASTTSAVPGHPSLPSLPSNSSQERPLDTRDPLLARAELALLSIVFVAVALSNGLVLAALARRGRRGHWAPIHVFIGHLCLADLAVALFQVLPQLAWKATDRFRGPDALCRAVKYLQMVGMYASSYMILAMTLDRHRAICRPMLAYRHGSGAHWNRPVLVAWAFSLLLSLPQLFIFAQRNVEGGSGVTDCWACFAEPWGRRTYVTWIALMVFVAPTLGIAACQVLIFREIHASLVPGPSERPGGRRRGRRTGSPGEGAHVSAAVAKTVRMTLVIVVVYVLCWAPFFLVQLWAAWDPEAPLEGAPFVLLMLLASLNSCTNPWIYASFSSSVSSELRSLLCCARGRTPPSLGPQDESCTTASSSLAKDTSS

SMILES	inhibition at 0.1 µM [%]	V2 % inhibition @ 100 nM [%]
Cc1ccccc1-c1ccc(C(=O)N2Cc3ccc(C(=O)NCCCn4ccnc4)n3Cc3ccccc32)cc1C [Example 124, 10-[(2,2′-Dimethyl[1,1′-biphenyl]-4-yl)carbonyl]-N-[3-(1H-imidazol-1-yl)propyl]-10,11-dihydro-5H-pyrrolo[2,1-c][1,4]benzodiazepine-3-carboxamide]	21	–
COc1ccccc1-c1ccc(C(=O)N2Cc3ccc(C(=O)N4CCC(N5CCCCC5)CC4)n3Cc3ccccc32)cc1OC [Example 119, {10-[(2,2′-Dimethoxy-[1,1′-biphenyl]-4-yl)carbonyl]-10,11-dihydro-5H-pyrrolo[2,1-c][1,4]benzodiazepin-3-yl}[4-(1-piperidinyl)-1-piperidinyl]methanone]	15	–
COc1cccc(-c2ccc(C(=O)N3Cc4ccc(C(=O)N5CCC(N6CCCCC6)CC5)n4Cc4ccccc43)cc2C)c1 [Example 114, {10-[(2-Methyl-3′-methoxy[1,1′-biphenyl]-4-yl)carbonyl]-10,11-dihydro-5H-pyrrolo[2,1-c][1,4]benzodiazepin-3-yl}[4-(1-piperidinyl)-1-piperidinyl]methanone]	22	–
COc1cc(C(=O)N2Cc3ccc(C(=O)N4CCC[C@H]4CN4CCCC4)n3Cc3ccccc32)ccc1-c1cccc2ccccc12 [Example 262, {10-[3-Methoxy-4-(1-naphthyl)benzoyl]-10,11-dihydro-5H-pyrrolo[2,1-c][1,4]benzodiazepin-3-yl}[(2S)-2-(1-pyrrolidinylmethyl)pyrrolidinyl]methanone]	–	4
Cc1ccccc1-c1ccc(C(=O)N2Cc3ccc(C(=O)N4CC[C@@H](N(C)C)C4)n3Cc3ccccc32)cc1C [Example 274, [(3R)-3-(Dimethylamino)pyrrolidinyl]{10-[(2,2′-dimethyl[1,1′-biphenyl]-4-yl)carbonyl]-10,11-dihydro-5H-pyrrolo[2,1-c][1,4]benzodiazepin-3-yl}methanone]	–	32
O=C(c1ccc2n1Cc1ccccc1N(C(=O)c1ccc(-c3cccc4ccccc34)cc1Cl)C2)N1CCC(N2CCCCC2)CC1 [Example 121]	–	13
COc1cccc(-c2cc(OC)c(C(=O)N3Cc4ccc(C(=O)N5CCN(CCN6CCOCC6)CC5)n4Cc4ccccc43)cc2Cl)c1 [Example 212, {10-[(6-Chloro-3,3′-dimethoxy[1,1′-biphenyl]-4-yl)carbonyl]-10,11-dihydro-5H-pyrrolo[2,1-c][1,4]benzodiazepin-3-yl}{4-[2-(4-morpholinyl)ethyl]-1-piperazinyi}methanone]	–	43
CN(C)[C@@H]1CCN(C(=O)c2ccc3n2Cc2ccccc2N(C(=O)c2ccc(-c4cccc5ccccc45)cc2Cl)C3)C1 [Example 277, {10-[2-Chloro-4-(1-naphthyl)benzoyl]-10,11-dihydro-5H-pyrrolo[2,1-c][1,4]benzodiazepin-3-yl}[(3R)-3-(dimethylamino)pyrrolidinyl]methanone]	–	19
COc1ccccc1-c1ccc(C(=O)N2Cc3ccc(C(=O)N4CCC(N5CCCCC5)CC4)n3Cc3ccccc32)cc1C [Example 112, {10-[(2-Methyl-2′-methoxy[1,1′-biphenyl]-4-yl)carbonyl]-10,11-dihydro-5H-pyrrolo[2,1-c][1,4]benzodiazepin-3-yl}[4-(1-piperidinyl)-1-piperidinyl]methanone]	32	–
COc1cc(C(=O)N2Cc3ccc(C(=O)N4CCC(N5CCCCC5)CC4)n3Cc3ccccc32)ccc1-c1ccccc1C [Example 116, {10-[(2-Methoxy-2′-methyl[1,1′-biphenyl]-4-yl)carbonyl]-10,11-dihydro-5H-pyrrolo[2,1-c][1,4]benzodiazepin-3-yl}[4-(1-piperidinyl)-1-piperidinyl]methanone]	22	–
COc1cccc(-c2ccc(C(=O)N3Cc4ccc(C(=O)N5CCC(N6CCCCC6)CC5)n4Cc4ccccc43)cc2OC)c1 [Example 120, {10-[(2,3′-Dimethoxy-[1,1′-biphenyl]-4-yl)carbonyl]-10,11-dihydro-5H-pyrrolo[2,1-c][1,4]benzodiazepin-3-yl}[4-(1-piperidinyl)-1-piperidinyl]methanone]	6	–
COc1cc2c(cc1OC)N(C(=O)c1ccc(-c3ccccc3C(F)(F)F)c(C)c1)Cc1ccc(C(=O)N(C)CCCN(C)C)n1C2.Cl [Example 13, N-Methyl-[N-(3-dimethylamino)propyl]-7,8-dimethoxy-10-{[2-methyl-2′-(trifluoromethyl)[1,1′-biphenyl]-4-yl]carbonyl}-10,11-dihydro-5H-pyrrolo[2,1-c][1,4]benzodiazepine-3-carboxamide hydrochloride salt]	–	−4
Cc1cc(C(=O)N2Cc3ccc(C(=O)NCCCN(C)C)n3Cc3ccccc32)ccc1-c1ccccc1C(F)(F)F [Example 84, N-[3-(Dimethylamino)propyl]-10-{[2-methyl-2′-(trifluoromethyl)[1,1′-biphenyl]-4-yl]carbonyl}-10,11-dihydro-5H-pyrrolo[2,1-c][1 .4]benzodiazepine-3-carboxamide]	–	11
COc1cc(C(=O)N2Cc3ccc(C(=O)N4CC[C@@H](N(C)C)C4)n3Cc3ccccc32)ccc1-c1ccccc1C [Example 281, [(3R)-3-(Dimethylamino)pyrrolidinyl]{10-[(2-methoxy-2′-methyl[1,1′-biphenyl]-4-yl)carbonyl]-10,11-dihydro-5H-pyrrolo[2,1-c][1,4]benzodiazepin-3-yl}methanone]	–	−9

Further lines, with some results ahead:

inhibition at 0.1 µM [%]	SMILES	V2 % inhibition @ 100 nM [%]
20	O=C(c1ccc2n1Cc1ccccc1N(C(=O)c1ccc(-c3cccc4ccccc34)cc1Cl)C2)N1CCC(N2CCCC2)CC1 [Example 147, {10-[2-Chloro-4-(1-naphthyl)benzoyl]-10,11-dihydro-5H-pyrrolo[2,1-c][1,4]benzodiazepin-3-yl}[4-(1-pyrrolidinyl)-1-piperidinyl]methanone]	–
12	COc1cccc(-c2ccc(C(=O)N3Cc4ccc(C(=O)N5CCC(N6CCCC6)CC5)n4Cc4ccccc43)cc2C)c1 [Example 139, {10-[(3′-Methoxy-2-methyl[1,1′-biphenyl]-4-yl)carbonyl]-10,11-dihydro-5H-pyrrolo[2,1-c][1,4]benzodiazepin-3-yl}[4-(1-pyrrolidinyl)-1-piperidinyl]methanone]	–
8	COc1cccc(-c2ccc(C(=O)N3Cc4ccc(C(=O)NCCCn5ccnc5)n4Cc4ccccc43)cc2OC)c1 [Example 133, 10-[(2,3′-Dimethoxy[1,1′-biphenyl]4-yl)carbonyl]-N-[3-(1H-imidazol-1-yl)propyl]-10,11-dihydro-5H-pyrrolo[2,1-c][1,4]benzodiazepine-3-carboxamide]	–
18	COc1ccccc1-c1ccc(C(=O)N2Cc3ccc(C(=O)NCCCn4ccnc4)n3Cc3ccccc32)cc1 [Example 126, N-[3-(1H-Imidazol-1-yl)propyl]-10-[(2′-methoxy[1,1′-biphenyl]-4-yl)carbonyl]-10,11-dihydro-5H-pyrrolo[2,1-c][1,4]benzodiazepine-3-carboxamide]	–
16	COc1ccccc1-c1ccc(C(=O)N2Cc3ccc(C(=O)NCCCn4ccnc4)n3Cc3ccccc32)cc1OC [Example 132, 10-[(2,2′-Dimethoxy[1,1′-biphenyl]-4-yl)carbonyl]-N-[3-(1H-imidazol-1-yl)propyl]-10,11-dihydro-5H-pyrrolo[2,1-c][1,4]benzodiazepine-3-carboxamide]	–
3	COc1cc(C(=O)N2Cc3ccc(C(=O)N4CCC(N5CCCC5)CC4)n3Cc3ccccc32)ccc1-c1cccc2ccccc12 [Example 144, {10-[3-Methoxy-4-(1-naphthyl)benzoyl]-10,11-dihydro-5H-pyrrolo[2,1-c][1,4]benzodiazepin-3-yl}[4-(1-pyrrolidinyl)-1-piperidinyl]methanone]	–
29	COc1ccccc1-c1ccc(C(=O)N2Cc3ccc(C(=O)N4CCC(N5CCCC5)CC4)n3Cc3ccccc32)cc1 [Example 140, {10-[(2′-Methoxy[1,1′-biphenyl]-4-yl)carbonyl]-10,11-dihydro-5H-pyrrolo[2,1-c][1,4]benzodiazepin-3-yl}[4-(1-pyrrolidinyl)-1-piperidinyl]methanone]	–
15	COc1cc(-c2ccccc2C)c(Cl)cc1C(=O)N1Cc2ccc(C(=O)NCCN3CCCCC3)n2Cc2ccccc21 [Example 155, 10-[(6-Chloro-3-methoxy-2′-methyl[1,1′-biphenyl]-4-yl)carbonyl]-N-[2-(1-piperidinyl)ethyl]-10,11-dihydro-5H-pyrrolo[2,1-c][1,4]benzodiazepine-3-carboxamide]	–
1	Cc1cc(C(=O)N2Cc3ccc(C(=O)N4CCC(N5CCCC5)CC4)n3Cc3ccccc32)ccc1-c1ccccc1C(F)(F)F [Example 148, (10-{[2-Methyl-2′-(trifluoromethyl)[1,1′-biphenyl]-4-yl]carbonyl}-10,11-dihydro-5H-pyrrolo[2,1-c][1,4]benzodiazepin-3-yl)[4-(1-pyrrolidinyl)-1-piperidinyl]methanone]	–
12	COc1cccc(-c2ccc(C(=O)N3Cc4ccc(C(=O)N5CCC(N6CCCC6)CC5)n4Cc4ccccc43)cc2OC)c1 [Example 146, {10-[(2,3′-Dimethoxy[1,1′-biphenyl]-4-yl)carbonyl]-10,11-dihydro-5H-pyrrolo[2,1-c][1,4]benzodiazepin-3-yl}[4-(1-pyrrolidinyl)-1-piperidinyl]methanone]	–
